Reference: patent publication US9895334B2, “Treatment of virally induced lesions” (LEO Laboratories Limited, priority 2007, dated 2018)

Test system: Cottontail Rabbit Papilloma Virus (CRPV) cutaneous warts
Assay: Cottontail Rabbit Papilloma Virus (CRPV) model of cutaneous warts: wart surface area after topical gel
Type: in vivo, Hra(NZW)SPF New Zealand White Rabbits
From the text: Efficacy of Ingenol-3-angelate (PEP005) Topical Gel in a Cottontail Rabbit Papilloma Virus (CRPV) model of cutaneous warts in Hra(NZW)SPF New Zealand White Rabbits.
Ch 25. In: Zak O, Sande M A, editors. Handbook of animal models of infection. New York: Academic Press; 1999. p. 1039-47). Concentrations of the inoculant were selected empirically based on published information for the CRPV model in which cutaneous papillomas (warts) were induced in rabbits (Christensen N D. Cottontail rabbit papillomavirus (CRPV) model system to test antiviral and immunotherapeutic strategies. Antiviral chemistry & chemotherapy 2005; 16(6):355-62). The percutaneous route was selected because this route has been successfully used to establish cutaneous papilloma (wart) formation in rabbits following inoculation with CRPV DNA.
Ten female Hra:(NZW)SPF New Zealand White (NZW) female rabbits were randomly assigned to four dose groups, three rabbits per dose group in Groups 1 through 3 and one rabbit in Group 4.
Four days before inoculation (DS-4), the backs of the rabbits were shaved over an area encompassing all eight exposure sites using an electric clipper with an appropriate blade. Following clipping, the skin was chemically depilated with Veet® (distributed by Reckitt Benckiser Inc., Parsippany, N.J., USA). The clipped area (approximately 10 cm×20 cm) extended from the shoulders to the hip joints of each rabbit and was approximately 10 cm wide (extending ventrolaterally from the dorsal midline approximately 5 cm on each side). Any re-growth of hair was carefully clipped, as needed throughout the study.
Three days before inoculation, rabbits were anesthetized with isoflourane/oxygen and the exposure sites on each rabbit were tattooed (Aims Black Pigment #242, AIMS Inc, Piscataway, N.J., USA, lot number F0707A, expiration date 30 Jun. 2008) on either side of each inoculation site. Each exposure site was carefully scarified using a scalpel blade (#60) to create a brush burn-like lesion in order to promote wart growth following inoculation. Rabbits were monitored constantly for signs of regular breathing and comfort while anesthetized and until full recovery from anesthesia. […]
Daily observations for development of the warts began during week 4 and continued until the first day of test article or placebo administration. The length and width of each cutaneous wart was recorded from the day of first observation to the completion of the study.
Dose administration of PEP005 Topical Gel or placebo began on DS 50. […] The treatment area of each dosing site was determined from the most recent length and width measurements of each wart (mm^2). […]

Structure (SMILES): C/C=C(/C)C(=O)O[C@H]1C(C)=C[C@]23C(=O)[C@@H](C=C(CO)[C@@H](O)[C@]12O)[C@H]1[C@@H](C[C@H]3C)C1(C)C [PEP005, ingenol-3-angelate]
- Average percentage change in wart area relative to Day 50 (0.1% PEP005, 3 day treatment, Days 51-57): 2.1%
- Average percentage change in wart area relative to Day 50 (0.1% PEP005, 3 day treatment, Days 56-64): −4.7%
- Average percentage change in wart area relative to Day 50 (0.1% PEP005, 5 day treatment, Days 51-57): 17.5%
- Average percentage change in wart area relative to Day 50 (0.1% PEP005, 5 day treatment, Days 56-64): 3.9%
